Laboratory results published in patent publication US10577368B2 (The United States of America, as represented by the …, priority 2013, dated 2020).

How the values were obtained:
hA3AR = hA3AR (Homo sapiens (Human), UniProt P0DMS8); test: Radioligand binding at hA3AR, CHO cell membranes, [125I]I-AB-MECA
hA2AAR = hA2AAR (Homo sapiens (Human), UniProt P29274); test: Radioligand binding at hA2AAR, HEK293 cell membranes, [3H]CGS21680; conditions: for inhibition at 10 µM: read-out: hA2AAR % inhibition; for hA2AAR % inhibition: inhibition of binding at 10 μM
Chain of hA2AAR (P29274 whole entry): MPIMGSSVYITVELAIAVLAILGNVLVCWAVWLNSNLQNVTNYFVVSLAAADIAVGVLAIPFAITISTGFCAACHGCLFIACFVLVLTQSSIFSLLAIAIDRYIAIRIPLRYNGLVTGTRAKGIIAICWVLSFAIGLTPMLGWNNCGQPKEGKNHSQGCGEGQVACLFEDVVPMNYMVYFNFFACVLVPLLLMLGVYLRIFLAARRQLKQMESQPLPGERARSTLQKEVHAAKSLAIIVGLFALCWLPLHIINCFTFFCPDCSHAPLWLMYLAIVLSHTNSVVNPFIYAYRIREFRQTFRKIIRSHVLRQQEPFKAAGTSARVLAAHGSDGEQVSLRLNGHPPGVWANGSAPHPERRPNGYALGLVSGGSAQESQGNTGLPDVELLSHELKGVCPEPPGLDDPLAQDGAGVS

hA1AR = hA1AR (Homo sapiens (Human), UniProt P30542); test: Radioligand binding at hA1AR, CHO cell membranes, [3H]R-PIA; conditions: for inhibition at 10 µM: read-out: hA1AR % inhibition; for hA1AR % inhibition: inhibition of binding at 10 μM
Chain of hA1AR (P30542 whole entry): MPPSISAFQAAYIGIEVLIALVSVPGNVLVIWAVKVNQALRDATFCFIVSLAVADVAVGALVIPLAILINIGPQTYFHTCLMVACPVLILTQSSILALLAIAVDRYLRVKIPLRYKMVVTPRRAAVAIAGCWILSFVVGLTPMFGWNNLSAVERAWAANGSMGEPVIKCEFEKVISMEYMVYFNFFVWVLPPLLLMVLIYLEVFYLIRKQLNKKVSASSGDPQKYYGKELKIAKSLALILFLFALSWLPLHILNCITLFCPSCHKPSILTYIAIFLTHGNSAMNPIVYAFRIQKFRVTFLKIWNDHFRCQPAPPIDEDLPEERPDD

[1] = test system: chronic constriction injury model of neuropathic pain; test: CCI model of neuropathic pain, reversal of mechano-allodynia; assay type: in vivo, mice; conditions: for Time of peak protection / Max. effect Emax (% ± SEM) / Effect at 3 h (% ± SEM): 3 μmol/kg p.o., mice; for Time of peak protection / Max. effect Emax (% ± SEM): ipsilateral hind paw; for Efficacy in reversing NP in vivo (of full reversal at peak effect): CCI model

Chain of hA3AR (P0DMS8 whole entry): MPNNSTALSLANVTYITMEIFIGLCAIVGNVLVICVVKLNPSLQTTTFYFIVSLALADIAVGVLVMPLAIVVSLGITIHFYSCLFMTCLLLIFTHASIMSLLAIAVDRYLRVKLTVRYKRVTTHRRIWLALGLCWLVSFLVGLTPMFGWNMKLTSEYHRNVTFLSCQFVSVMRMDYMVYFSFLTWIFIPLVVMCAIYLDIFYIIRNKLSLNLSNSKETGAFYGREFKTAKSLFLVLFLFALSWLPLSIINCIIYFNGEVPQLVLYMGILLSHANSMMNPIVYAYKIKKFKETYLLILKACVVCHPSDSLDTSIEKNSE

Row | Compound | Ki (hA3AR) [nM] | inhibition at 10 µM (hA2AAR) [%] | inhibition at 10 µM (hA1AR) [%] | Time of peak protection [1] [h] | other results
1 | CNC(=O)[C@@]12C[C@@H]1[C@@H](n1cnc3c(NC4CC4c4cccc(C)c4)nc(C#Cc4ccccc4)nc31)[C@H](O)[C@@H]2O (mixture of isomers) [Compound 22, (1S,2R,3S,4R,5S)-2,3-Dihydroxy-N-methyl-4-(2-(phenylethynyl)-6-((2-(m-tolyl)cyclopropyl)amino)-9H-purin-9-yl)bicyclo[3.1.0]hexane-1-carboxamide] | 17.6 ± 1.3 | – | – | – | –
2 | CNC(=O)[C@@]12C[C@@H]1[C@@H](n1cnc3c(NC4CC4c4cccc(F)c4)nc(C#Cc4ccccc4)nc31)[C@H](O)[C@@H]2O (mixture of isomers) [Compound 23, (1S,2R,3S,4R,5S)-4-(6-((2-(3-Fluorophenyl)cyclopropyl)amino)-2-(phenylethynyl)-9H-purin-9-yl)-2,3-dihydroxy-N-methylbicyclo[3.1.0]hexane-1-carboxamide] | 16.5 ± 1.9 | 1 | – | – | –
3 | CNC(=O)[C@@]12C[C@@H]1[C@@H](n1cnc3c(NC4CC4c4cccc(Cl)c4)nc(C#Cc4ccccc4)nc31)[C@H](O)[C@@H]2O (mixture of isomers) [Compound 24, (1S,2R,3S,4R,5S)-4-(6-((2-(3-Chlorophenyl)cyclopropyl)amino)-2-(phenylethynyl)-9H-purin-9-yl)-2,3-dihydroxy-N-methylbicyclo[3.1.0]hexane-1-carboxamide] | 11.2 ± 4.2 | – | – | – | –
4 | CNC(=O)[C@@]12C[C@@H]1[C@@H](n1cnc3c(NC4CC4c4cccc(Br)c4)nc(C#Cc4ccccc4)nc31)[C@H](O)[C@@H]2O (mixture of isomers) [Compound 25, (1S,2R,3S,4R,5S)-4-(6-((2-(3-Bromophenyl)cyclopropyl)amino)-2-(phenylethynyl)-9H-purin-9-yl)-2,3-dihydroxy-N-methylbicyclo[3.1.0]hexane-1-carboxamide] | 14.5 ± 1 | – | – | – | –
5 | CNC(=O)[C@@]12C[C@@H]1[C@@H](n1cnc3c(NC4CC4c4ccc(F)c(F)c4)nc(C#Cc4ccccc4)nc31)[C@H](O)[C@@H]2O (mixture of isomers) [Compound 26, (1 S,2R,3S,4R,5S)-4-(6-((2-(3,4-Difluorophenyl)cyclopropyl)amino)-2-(phenylethynyl)-9H-purin-9-yl)-2,3-dihydroxy-N-methylbicyclo[3.1.0]hexane-1-carboxamide] | 20.2 ± 2.1 | – | – | – | –
6 | CNC(=O)[C@@]12C[C@@H]1[C@@H](n1cnc3c(NC)nc(C#Cc4cccc(C(F)(F)F)c4)nc31)C(O)C2O (stereo in doubt) [Compound 14, (1 S,2S,3R,4R,5S)-2,3-Dihydroxy-N-methyl-4-(6-(methylamino)-2-((3-(trifluoromethyl)phenyl)ethynyl)-9H-purin-9-yl)bicyclo[3.1.0]hexane-1-carboxamide] | – | 12 ± 6 | 10 | 0.5 to 1 | –
7 | CNC(=O)[C@@]12C[C@@H]1[C@@H](n1cnc3c(C)nc(C#Cc4ccc(C(C)(C)C)cc4)nc31)C(O)C2O (stereo in doubt) [Compound 41, (1S,2S,3R,4R,5S)-4-(2-((4-(tert-butyl)phenyl)ethynyl)-6-methyl-9H-purin-9-yl)-2,3-dihydroxy-N-methylbicyclo[3.1.0]hexane-1-carboxamide] | – | 34 ± 7 | 15 ± 6 | – | –
8 | CNC(=O)[C@@]12C[C@@H]1[C@@H](n1cnc3c(NC)nc(C#Cc4cccnn4)nc31)[C@H](O)[C@@H]2O [Compound 10, (1S,2R,3S,4R,5S)-2,3-Dihydroxy-N-methyl-4-(6-(methylamino)-2-(pyridazin-3-ylethynyl)-9H-purin-9-yl)bicyclo[3.1.0]hexane-1-carboxamide] | – | 13 ± 8 | 11 | 0.5 | Efficacy in reversing NP in vivo (of full reversal at peak effect) [1]: less than full efficacy
9 | CNC(=O)[C@@]12C[C@@H]1[C@@H](n1cnc3c(NC)nc(C#Cc4cccnc4)nc31)[C@H](O)[C@@H]2O [Compound 15, (1S,2R,3S,4R,5S)-2,3-Dihydroxy-N-methyl-4-(6-(methylamino)-2-(pyridin-3-ylethynyl)-9H-purin-9-yl)bicyclo[3.1.0]hexane-1-carboxamide] | – | 12 ± 6 | 16 ± 10 | 0.5 to 2 | Efficacy in reversing NP in vivo (of full reversal at peak effect) [1]: low efficacy
10 | CNC(=O)[C@@]12C[C@@H]1[C@@H](n1cnc3c(NC)nc(C#CC4CCCCC4)nc31)[C@H](O)[C@@H]2O [Compound 19, (1S,2R,3S,4R,5S)-4-(2-(Cyclohexylethynyl)-6-(methylamino)-9H-purin-9-yl)-2,3-dihydroxy-N-methylbicyclo[3.1.0]hexane-1-carboxamide] | – | 45 ± 6 | 15 | 1 to 2 | Max. effect Emax (% ± SEM) [1]: 64.1 ± 10.5%; Efficacy in reversing NP in vivo (of full reversal at peak effect) [1]: 60-70%
11 | CNC(=O)[C@@]12C[C@@H]1[C@@H](n1cnc3c(NC)nc(C#CC4CC4)nc31)[C@H](O)[C@@H]2O [Compound 20, (1S,2R,3S,4R,5S)-4-(2-(Cyclopropylethynyl)-6-(methylamino)-9H-purin-9-yl)-2,3-dihydroxy-N-methylbicyclo[3.1.0]hexane-1-carboxamide] | – | 15 ± 10 | 38 | – | Efficacy in reversing NP in vivo (of full reversal at peak effect) [1]: 60-70%
12 | CNC(=O)[C@@]12C[C@@H]1[C@@H](n1cnc3c(NC)nc(C#Cc4cc(C)c(C)o4)nc31)[C@H](O)[C@@H]2O [Compound 29, (1S,2R,3S,4R,5S)-4-(2-((4,5-Dimethylfuran-2-yl)ethynyl)-6-(methylamino)-9H-purin-9-yl)-2,3-dihydroxy-N-methylbicyclo[3.1.0]hexane-1-carboxamide] | – | 21 ± 3 | 15 | 1 | –
13 | CNC(=O)[C@@]12C[C@@H]1[C@@H](n1cnc3c(NC)nc(C#Cc4ccc(CO)cc4)nc31)[C@H](O)[C@@H]2O [Compound 31, (1S,2R,3S,4R,5S)-2,3-Dihydroxy-4-(2-((4-(hydroxymethyl)phenyl)ethynyl)-6-(methylamino)-9H-purin-9-yl)-N-methylbicyclo[3.1.0]hexane-1-carboxamide] | – | 11 ± 7 | 16 | 1 | –
14 | CNC(=O)[C@@]12C[C@@H]1[C@@H](n1cnc3c(NC)nc(C#Cc4cc5ccccc5o4)nc31)[C@H](O)[C@@H]2O [Compound 33, (1S,2R,3S,4R,5S)-4-(2-(Benzofuran-2-ylethynyl)-6-(methylamino)-9H-purin-9-yl)-2,3-dihydroxy-N-methylbicyclo[3.1.0]hexane-1-carboxamide] | – | 18 ± 3 | 13 | 1 | Max. effect Emax (% ± SEM) [1]: 87.4 ± 0.6%
15 | CNC(=O)[C@]12CC1[C@@H](n1cnc3c(NC)nc(-n4cc(-c5ccc(F)c(F)c5)nn4)nc31)[C@H](O)C2O (some centres unmarked) [Compound 102] | – | – | – | 1 | Effect at 3 h (% ± SEM) [1]: 8 ± 8%; Max. effect Emax (% ± SEM) [1]: 55 ± 6%; hA2AAR % inhibition (hA2AAR): 39 ± 4%
16 | CNC(=O)[C@]12CC1[C@@H](n1cnc3c(NC)nc(-n4cc(-c5ccco5)nn4)nc31)[C@H](O)C2O (some centres unmarked) [Compound 107] | 0.96 ± 0.09 | – | – | 1 | Effect at 3 h (% ± SEM) [1]: 21 ± 7%; Max. effect Emax (% ± SEM) [1]: 65 ± 8%; hA2AAR % inhibition (hA2AAR): 51 ± 1%
17 | CNC(=O)[C@]12CC1[C@@H](n1cnc3c(NC)nc(N=[N+]=[N-])nc31)[C@H](O)C2O (some centres unmarked) [Compound 113] | 0.54 ± 0.1 | – | – | – | hA2AAR % inhibition (hA2AAR): 1 ± 1%
18 | CNC(=O)[C@]12CC1[C@@H](n1cnc3c(NC)nc(I)nc31)[C@H](O)C2O (some centres unmarked) [Compound 114] | 1.91 ± 0.85 | – | – | – | –
19 | CNC(=O)[C@]12CC1[C@@H](n1cnc3c(NC4CCC4)nc(N=[N+]=[N-])nc31)[C@H](O)C2O (some centres unmarked) [Compound 115] | 0.85 ± 0.1 | – | – | – | hA2AAR % inhibition (hA2AAR): 46%
20 | CNC(=O)[C@]12CC1[C@@H](n1cnc3c(NCc4cccc(Cl)c4)nc(I)nc31)[C@H](O)C2O (some centres unmarked) [Compound 116] | – | – | – | – | Ki (hA2AAR): > 10000 nM
21 | CNC(=O)[C@]12CC1[C@@H](n1cnc3c(NC4CCC4)nc(I)nc31)[C@H](O)C2O (some centres unmarked) [Compound 118] | 1.53 ± 0.45 | – | – | – | Ki (hA2AAR): > 10000 nM
22 | CNC(=O)[C@]12CC1[C@@H](n1cnc3c(NCc4cccc(Cl)c4)nc(-n4cc(-c5ccc(Cl)s5)nn4)nc31)[C@H](O)C2O (some centres unmarked) [Compound 120] | 11.7 | – | – | 0.5 to 4 | Effect at 3 h (% ± SEM) [1]: 100%; Max. effect Emax (% ± SEM) [1]: 100%
23 | CCNc1nc(I)nc2c1ncn2[C@@H]1C2C[C@]2(C(=O)NC)C(O)[C@H]1O (some centres unmarked) [Compound 122] | 1.22 ± 0.21 | – | – | – | hA2AAR % inhibition (hA2AAR): 11 ± 7%
24 | CCNc1nc(N=[N+]=[N-])nc2c1ncn2[C@@H]1C2C[C@]2(C(=O)NC)C(O)[C@H]1O (some centres unmarked) [Compound 123] | 0.6 ± 0.08 | – | – | – | hA2AAR % inhibition (hA2AAR): 11 ± 6%
25 | CNC(=O)[C@]12CC1[C@@H](n1cnc3c(NCc4cccc(Cl)c4)nc(N=[N+]=[N-])nc31)[C@H](O)C2O (some centres unmarked) [Compound 124] | 1.08 ± 0.75 | – | – | – | Ki (hA2AAR): 2770 nM
26 | CNC(=O)[C@]12CC1[C@@H](n1cnc3c(NC4CCC4)nc(-n4cc(-c5ccc(Cl)s5)nn4)nc31)[C@H](O)C2O (some centres unmarked) [Compound 125] | 7.13 | – | – | 0.5 to 3 | Effect at 3 h (% ± SEM) [1]: 90%; Max. effect Emax (% ± SEM) [1]: 100%
27 | CNC(=O)[C@]12CC1[C@@H](n1cnc3c(NC)nc(C#Cc4ccccc4)nc31)[C@H](O)C2O (some centres unmarked) [Compound 400, reference compound] | – | – | – | 0.5 to 1 | hA1AR % inhibition (hA1AR): (18% ± 8%); Effect at 3 h (% ± SEM) [1]: 5.0 ± 5.0%; Max. effect Emax (% ± SEM) [1]: 44.1 ± 9.9%; Efficacy in reversing NP in vivo (of full reversal at peak effect) [1]: ~30%; hA2AAR % inhibition (hA2AAR): (14% ± 7%)
28 | CNC(=O)[C@]12CC1[C@@H](n1cnc3c(NC)nc(C#Cc4ccccn4)nc31)[C@H](O)C2O (some centres unmarked) [Compound 401, reference compound] | – | – | – | – | hA1AR % inhibition (hA1AR): (13% ± 8%); Efficacy in reversing NP in vivo (of full reversal at peak effect) [1]: low efficacy; hA2AAR % inhibition (hA2AAR): (13% ± 4%)
